# Results taken from patent US20210386367A1, “DEVICES AND SYSTEMS FOR GASTROINTESTINAL MICROBIOME DETECTION AND MANIPULATION” (Progenity, Inc., priority 2018, published 2021).
# Experiments:
# [1] = test system: E. coli spontaneous mutants; assay: Broth microdilution MIC of spontaneous mutants; type: cell-based, Escherichia coli
# Description: (§1) Select isolates were subcultured onto agar containing drug at the selection concentration, were identified by MALDI, and were frozen for broth microdilution MIC testing as described below.
# (§2) To determine whether colonies growing on drug selection plates had elevated MIC values to the selecting antibiotic, susceptibility testing by broth microdilution was conducted on isolated mutants following methodology recommended by CLSI (1), (2), and (3) “Performance Standards for Antimicrobial Susceptibility Testing; Twenty-Eighth Informational Supplement.,” CLSI document M100-S28, 2018.
# (§3) All wells in columns 2 through 12 of a standard 96-well microdilution plate (Costar 3795) were filled with 150 μL of the appropriate diluent. Then, 300 μL of the test agents were added to the wells of column 1 of the plates at […] the highest final concentration to be tested. Serial two-fold dilutions were made across the rows through column 11 using the Biomek 2000. The wells of column 12 contained no drug and served as the growth control wells. This plate served as the “mother plate” from which selected MIC assay plates or “daughter plates” were made.
# (§4) 2 μL of drug solution from each well of a mother plate was added to each corresponding well of the daughter plate in a single step. A standardized inoculum of each aerobic test organism was prepared per CLSI methods to equal a 0.5 McFarland standard, followed by a dilution of 1:20 in MHB II. The plates were then inoculated with 10 μL of the diluted inoculum using the Biomek 2000 from low to high drug concentration, resulting in a final concentration of approximately 5×10^5 CFU/mL. An un-inoculated plate was incubated for the purpose of assessing solubility of the drug in the test media.
# (§5) The plates for the aerobic tests were stacked 3-4 high, covered with a sterile lid on the top plate, and incubated aerobically at 35° C. for 18-20 hr. The MIC was recorded as the lowest concentration of drug that inhibited visible growth of the organism.
# [2] = test system: Streptococcus spp. spontaneous mutants; assay: organism not typed; type: cell-based
# Description: as §1, §2, §3, §4, §5
# [3] = test system: E. coli spontaneous mutants; details: E. coli ATCC 25922; CLSI QC range shown in parentheses; cited from earlier work
# [4] = test system: Streptococcus spp. spontaneous mutants; details: S. pneumoniae ATCC 49619; CLSI QC range shown in parentheses; cited from earlier work
# SIBO Bacteria = details: cited from earlier work
# [5] = in vivo, po, 10 mg/kg; cited from earlier work
# Clostridium spp. = assay: Agar dilution MIC, 10 clinical isolates; type: cell-based
# E. coli ATCC 25922 = assay: Broth microdilution MIC (time-kill study); type: cell-based, Escherichia coli; details: Escherichia coli, ATCC25922; E. coli ATCC 25922; read-out: MIC
# [6] = test system: E. coli ATCC 35218 (TEM-1 β-lactamase producer); assay: Broth microdilution MIC (time-kill study); type: cell-based, Escherichia coli; details: Escherichia coli, ATCC35218
# E. coli MMX 1312 = assay: Broth microdilution MIC (time-kill study); type: cell-based, Escherichia coli; details: Escherichia coli, MMX1312; E. coli MMX 1312; read-out: MIC
# S. pneumoniae ATCC 49619 = assay: Broth microdilution MIC (time-kill study); type: cell-based, Streptococcus pneumoniae; details: Streptococcus pneumoniae, ATCC49619; S. pneumoniae ATCC 49619; read-out: MIC
# S. pyogenes ATCC 49399 = assay: Broth microdilution MIC (time-kill study); type: cell-based, Streptococcus pyogenes; details: Streptococcus pyogenes, ATCC49399; S. pyogenes ATCC 49399; read-out: MIC
# S. agalactiae ATCC 13813 = assay: Broth microdilution MIC (time-kill study); type: cell-based, Streptococcus agalactiae; details: Streptococcus agalactiae, ATCC13813
# B. fragilis ATCC 25285 [7] = assay: Broth microdilution MIC (time-kill study); type: cell-based, Bacteroides fragilis; details: Bacteroides fragilis, ATCC25285; B. fragilis MMX 123 ATCC 25285; read-out: MIC
# B. vulgatus ATCC 8482 = assay: Broth microdilution MIC (time-kill study); type: cell-based, Bacteroides vulgatus; details: Phocaeicola vulgatus, ATCC8482; B. vulgatus ATCC 8482; read-out: MIC
# B. ovatus MMX 3503 = assay: Broth microdilution MIC (time-kill study); type: cell-based, Bacteroides ovatus; details: Bacteroides ovatus, MMX3503; B. ovatus MMX 3504 (so in the source); read-out: MIC
# B. fragilis ATCC 25285 [8] = details: B. fragilis MMX 123 ATCC 25285; cited from earlier work
smiles,measurement,setting,value
CN(C)[C@@H]1C(O)=C(C(N)=O)C(=O)[C@@]2(O)C(O)=C3C(=O)c4c(O)cccc4[C@@](C)(O)[C@H]3C[C@@H]12 [TET],MIC,"[1]; E. coli ATCC 25922, selected on rifaximin 4X MIC, Colony A",0.5 µg/mL
same,MIC,"[1]; E. coli ATCC 25922, selected on rifaximin 4X MIC, Colony B",1 µg/mL
same,MIC,"[1]; E. coli ATCC 25922, selected on rifaximin 8X MIC, Colony A",1 µg/mL
same,MIC,"[1]; E. coli ATCC 25922, selected on rifaximin 8X MIC, Colony B",1 µg/mL
same,MIC,[1]; E. coli ATCC 25922 Parent (Table 52),1 µg/mL
same,MIC,"[1]; E. coli ATCC 35218, selected on rifaximin 4X MIC, Colony A",2 µg/mL
same,MIC,"[1]; E. coli ATCC 35218, selected on rifaximin 4X MIC, Colony B",1 µg/mL
same,MIC,"[1]; E. coli ATCC 35218, selected on rifaximin 8X MIC, Colony A",0.5 µg/mL
same,MIC,"[1]; E. coli ATCC 35218, selected on rifaximin 8X MIC, Colony B",2 µg/mL
same,MIC,[1]; E. coli ATCC 35218 Parent (Table 52),1 µg/mL
same,MIC,"[1]; E. coli MMX 1312, selected on ceftriaxone 4X MIC, Colony A",>16 µg/mL
same,MIC,"[1]; E. coli MMX 1312, selected on ceftriaxone 4X MIC, Colony B",>16 µg/mL
same,MIC,"[1]; E. coli MMX 1312, selected on ceftriaxone 4X MIC, Colony C",>16 µg/mL
same,MIC,"[1]; E. coli MMX 1312, selected on ceftriaxone 8X MIC, Colony A",>16 µg/mL
same,MIC,"[1]; E. coli MMX 1312, selected on ceftriaxone 8X MIC, Colony B",>16 µg/mL
same,MIC,"[1]; E. coli MMX 1312, selected on ceftriaxone 8X MIC, Colony C",>16 µg/mL
same,MIC,"[1]; E. coli MMX 1312, selected on rifaximin 4X MIC, Colony A",>16 µg/mL
same,MIC,"[1]; E. coli MMX 1312, selected on rifaximin 4X MIC, Colony B",>16 µg/mL
same,MIC,"[1]; E. coli MMX 1312, selected on rifaximin 8X MIC, Colony A",>16 µg/mL
same,MIC,"[1]; E. coli MMX 1312, selected on rifaximin 8X MIC, Colony B",>16 µg/mL
same,MIC,[1]; E. coli MMX 1312 Parent,>16 µg/mL
same,MIC,[1]; E. coli MMX 1312 Parent (Table 49),>16 µg/mL
same,MIC,[1]; E. coli MMX 1312 Parent (Table 52),>16 µg/mL
same,MIC,"[1]; E. coli MMX 1312 mutant selected on meropenem 4X MIC, colony A",>16 µg/mL
same,MIC,"[1]; E. coli MMX 1312 mutant selected on meropenem 4X MIC, colony B",>16 µg/mL
same,MIC,"[1]; E. coli MMX 1312 mutant selected on meropenem 4X MIC, colony C",4 µg/mL
same,MIC,"[1]; E. coli MMX 1312 mutant selected on meropenem 8X MIC, colony A",>16 µg/mL
same,MIC,"[1]; E. coli MMX 1312 mutant selected on meropenem 8X MIC, colony B",>16 µg/mL
same,MIC,"[1]; E. coli MMX 1312 mutant selected on meropenem 8X MIC, colony C",>16 µg/mL
same,MIC,"[2]; S. agaloctiae ATCC 13813, selected on rifaximin 4X MIC, Colony A",0.12 µg/mL
same,MIC,"[2]; S. agaloctiae ATCC 13813, selected on rifaximin 4X MIC, Colony B",0.12 µg/mL
same,MIC,"[2]; S. agaloctiae ATCC 13813, selected on rifaximin 8X MIC, Colony A",0.12 µg/mL
same,MIC,"[2]; S. agaloctiae ATCC 13813, selected on rifaximin 8X MIC, Colony B",0.25 µg/mL
same,MIC,[2]; S. agaloctiae ATCC 13813 Parent,0.12 µg/mL
same,MIC,"[2]; S. pneumoniae ATCC 49619, selected on rifaximin 4X MIC, Colony A",0.06 µg/mL
same,MIC,"[2]; S. pneumoniae ATCC 49619, selected on rifaximin 4X MIC, Colony B",0.06 µg/mL
same,MIC,"[2]; S. pneumoniae ATCC 49619, selected on rifaximin 8X MIC, Colony A",0.06 µg/mL
same,MIC,"[2]; S. pneumoniae ATCC 49619, selected on rifaximin 8X MIC, Colony B",0.06 µg/mL
same,MIC,[2]; S. pneumoniae ATCC 49619 Parent,0.12 µg/mL
same,MIC,"[2]; S. pyogenes ATCC 49399, selected on rifaximin 4X MIC, Colony A",0.12 µg/mL
same,MIC,"[2]; S. pyogenes ATCC 49399, selected on rifaximin 4X MIC, Colony B",0.12 µg/mL
same,MIC,"[2]; S. pyogenes ATCC 49399, selected on rifaximin 8X MIC, Colony A",0.12 µg/mL
same,MIC,"[2]; S. pyogenes ATCC 49399, selected on rifaximin 8X MIC, Colony B",0.12 µg/mL
same,MIC,[2]; S. pyogenes ATCC 49399 Parent,0.12 µg/mL
same,"MIC, CLSI QC range",[3],(0.5-2) μg/mL
same,"MIC, CLSI QC range",[4],(0.06-0.5) μg/mL
C[C@@H](O)[C@H]1C(=O)N2C(C(=O)O)=C(S[C@@H]3CN[C@H](C(=O)Nc4cccc(C(=O)O)c4)C3)[C@H](C)[C@H]12 [ertapenem],activity against SIBO organisms,SIBO Bacteria,active against SIBO organisms
same,Rat oral exposure (Dose),[5],0.39 μM*h at 10
"Cc1ncc([N+](=O)[O-])n1CCO [metronidazole, Metronidazole]",relative activity among drugs tested,Clostridium spp.,meropenem and metronidazole had similar activity
same,MIC,E. coli ATCC 25922,> 32 µg/mL
same,MIC,[6],> 32 µg/mL
same,MIC,E. coli MMX 1312,> 32 µg/mL
same,MIC,S. pneumoniae ATCC 49619,> 32 µg/mL
same,MIC,S. pyogenes ATCC 49399,> 32 µg/mL
same,MIC,S. agalactiae ATCC 13813,> 32 µg/mL
same,MIC,B. fragilis ATCC 25285 [7],0.5 µg/mL
same,MIC,B. vulgatus ATCC 8482,0.5 µg/mL
same,MIC,B. ovatus MMX 3503,0.5 µg/mL
same,CLSI QC range (MIC),B. fragilis ATCC 25285 [8],(0.25-2) μg/mL
